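Cultured in 96-well plates, cells were exposed to test compound for 48 hours across five concentrations. The concentration for full growth arrest is given as TGI.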
What was measured:
Test in all cases: NCI-60 cell line screen, 48 h
[1] = system: HT29 colon
[2] = system: HL-60(TB) leukemia
[3] = system: UACC-257 melanoma
[4] = system: COLO 205 colon
[5] = system: NCI-H23 lung
[6] = system: DU-145 prostate
[7] = system: A549 NSCLC
[8] = system: OVCAR-3 ovarian
[9] = system: RPMI-8226 leukemia
[10] = system: SR leukemia
[11] = system: TK-10 renal
[12] = system: NCI/ADR-RES ovarian
[13] = system: SF-539 CNS
[14] = system: SNB-19 CNS
[15] = system: ACHN renal
[16] = system: SW-620 colon
[17] = system: KM12 colon
[18] = system: RXF 393 renal
[19] = system: CAKI-1 renal
[20] = system: SNB-75 CNS
[21] = system: OVCAR-5 ovarian
[22] = system: M14 melanoma
[23] = system: MCF7 breast
[24] = system: SK-MEL-28 melanoma
[25] = system: MDA-N
[26] = system: T-47D breast
[27] = system: K-562 leukemia
[28] = system: HOP-62 NSCLC
[29] = system: PC-3 prostate
[30] = system: SK-MEL-5 melanoma
[31] = system: HS 578T breast
[32] = system: NCI-H460 lung
[33] = system: SK-OV-3 ovarian
[34] = system: CCRF-CEM leukemia
[35] = system: UACC-62 melanoma
[36] = system: MDA-MB-231 breast
[37] = system: UO-31 renal
[38] = system: BT-549 breast
[39] = system: HCC-2998 colon
[40] = system: SF-295 CNS
[41] = system: 786-0 renal
[42] = system: SF-268 CNS
[43] = system: SN12C renal
[44] = system: IGROV1 ovarian
[45] = system: LOX IMVI melanoma
[46] = system: MALME-3M melanoma
[47] = system: HOP-92 NSCLC
[48] = system: HCT-116 colon
[49] = system: MOLT-4 leukemia
[50] = system: OVCAR-4 ovarian
[51] = system: HCT-15 colon
[52] = system: NCI-H226 lung
[53] = system: U251 CNS
[54] = system: NCI-H522 lung
[55] = system: EKVX NSCLC
[56] = system: MDA-MB-435
[57] = system: SK-MEL-2 melanoma
[58] = system: A498 renal
[59] = system: OVCAR-8 ovarian

SMILES: COc1ccc(N=Nc2c(C)c(C#N)c(=S)n(C3OC(COC(C)=O)C(OC(C)=O)C(OC(C)=O)C3OC(C)=O)c2C)cc1 (stereo not drawn)
- TGI [1]: > 100 µM
- TGI [2]: > 100 µM
- TGI [3]: > 100 µM
- TGI [4]: > 100 µM
- TGI [5]: > 100 µM
- TGI [6]: > 100 µM
- TGI [7]: > 100 µM
- TGI [8]: > 100 µM
- TGI [9]: > 100 µM
- TGI [10]: > 100 µM
- TGI [11]: > 100 µM
- TGI [12]: > 100 µM
- TGI [13]: > 100 µM
- TGI [14]: > 100 µM
- TGI [15]: > 100 µM
- TGI [16]: > 100 µM
- TGI [17]: > 100 µM
- TGI [18]: > 100 µM
- TGI [19]: > 100 µM
- TGI [20]: 42.6 µM
- TGI [21]: > 100 µM
- TGI [22]: > 100 µM
- TGI [23]: > 100 µM
- TGI [24]: > 100 µM
- TGI [25]: > 100 µM
- TGI [26]: > 100 µM
- TGI [27]: > 100 µM
- TGI [28]: > 100 µM
- TGI [29]: > 100 µM
- TGI [30]: > 100 µM
- TGI [31]: 82 µM
- TGI [32]: > 100 µM
- TGI [33]: > 100 µM
- TGI [34]: > 100 µM
- TGI [35]: > 100 µM
- TGI [36]: 71 µM
- TGI [37]: > 100 µM
- TGI [38]: > 100 µM
- TGI [39]: > 100 µM
- TGI [40]: > 100 µM
- TGI [41]: 53 µM
- TGI [42]: > 100 µM
- TGI [43]: > 100 µM
- TGI [44]: > 100 µM
- TGI [45]: > 100 µM
- TGI [46]: > 100 µM
- TGI [47]: 63.5 µM
- TGI [48]: > 100 µM
- TGI [49]: > 100 µM
- TGI [50]: > 100 µM

SMILES: CCc1n[nH]c(=O)n1N1C(=O)CCC1=O
- TGI [51]: > 100 µM
- TGI [1]: > 100 µM
- TGI [52]: > 100 µM
- TGI [53]: > 100 µM
- TGI [3]: > 100 µM
- TGI [4]: > 100 µM
- TGI [6]: > 100 µM
- TGI [7]: > 100 µM
- TGI [8]: > 100 µM
- TGI [9]: > 100 µM
- TGI [10]: > 100 µM
- TGI [11]: > 100 µM
- TGI [12]: > 100 µM
- TGI [14]: > 100 µM
- TGI [15]: > 100 µM
- TGI [16]: > 100 µM
- TGI [17]: > 100 µM
- TGI [18]: > 100 µM
- TGI [19]: > 100 µM
- TGI [20]: > 100 µM
- TGI [54]: > 100 µM
- TGI [21]: > 100 µM
- TGI [22]: > 100 µM
- TGI [23]: > 100 µM
- TGI [24]: > 100 µM
- TGI [25]: > 100 µM
- TGI [26]: > 100 µM
- TGI [27]: > 100 µM
- TGI [28]: > 100 µM
- TGI [29]: > 100 µM
- TGI [30]: > 100 µM
- TGI [31]: > 100 µM
- TGI [32]: > 100 µM
- TGI [33]: > 100 µM
- TGI [34]: > 100 µM
- TGI [35]: > 100 µM
- TGI [36]: > 100 µM
- TGI [37]: > 100 µM
- TGI [55]: > 100 µM
- TGI [38]: > 100 µM
- TGI [56]: > 100 µM
- TGI [39]: > 100 µM
- TGI [57]: > 100 µM
- TGI [40]: > 100 µM
- TGI [41]: > 100 µM
- TGI [58]: > 100 µM
- TGI [42]: > 100 µM
- TGI [43]: > 100 µM
- TGI [44]: > 100 µM
- TGI [45]: > 100 µM
- TGI [46]: > 100 µM
- TGI [59]: > 100 µM
- TGI [48]: > 100 µM
- TGI [49]: > 100 µM
- TGI [50]: > 100 µM

SMILES: C=C(C)CNC(=S)N(N)c1ccc(OC)cc1
- TGI [51]: 56.8 µM
- TGI [1]: > 100 µM
- TGI [2]: > 100 µM
- TGI [52]: > 100 µM
- TGI [53]: > 100 µM
- TGI [3]: > 100 µM
- TGI [4]: > 100 µM
- TGI [5]: > 100 µM
- TGI [6]: > 100 µM
- TGI [7]: > 100 µM
- TGI [8]: > 100 µM
- TGI [9]: > 100 µM
- TGI [10]: > 100 µM
- TGI [11]: > 100 µM
- TGI [12]: > 100 µM
- TGI [13]: > 100 µM
- TGI [14]: > 100 µM
- TGI [15]: > 100 µM
- TGI [16]: > 100 µM
- TGI [17]: > 100 µM
- TGI [18]: > 100 µM
- TGI [20]: > 100 µM
- TGI [54]: > 100 µM
- TGI [21]: > 100 µM
- TGI [22]: > 100 µM
- TGI [23]: > 100 µM
- TGI [24]: > 100 µM
- TGI [25]: > 100 µM
- TGI [26]: > 100 µM
- TGI [27]: > 100 µM
- TGI [28]: > 100 µM
- TGI [29]: > 100 µM
- TGI [30]: > 100 µM
- TGI [31]: > 100 µM
- TGI [32]: > 100 µM
- TGI [33]: > 100 µM
- TGI [34]: > 100 µM
- TGI [35]: 67.7 µM
- TGI [36]: > 100 µM
- TGI [37]: > 100 µM
- TGI [55]: > 100 µM
- TGI [38]: > 100 µM
- TGI [56]: > 100 µM
- TGI [39]: > 100 µM
- TGI [40]: > 100 µM
- TGI [41]: > 100 µM
- TGI [42]: > 100 µM
- TGI [43]: > 100 µM
- TGI [44]: > 100 µM
- TGI [45]: > 100 µM
- TGI [46]: > 100 µM
- TGI [47]: > 100 µM
- TGI [59]: > 100 µM
- TGI [48]: > 100 µM
- TGI [49]: > 100 µM
- TGI [50]: > 100 µM

SMILES: CC(=O)OCc1ccc2oc(=O)c(C(=O)Oc3cccc(Cl)c3)cc2c1
- TGI [51]: > 100 µM
- TGI [1]: 80.2 µM
- TGI [52]: > 100 µM
- TGI [53]: > 100 µM
- TGI [3]: > 100 µM
- TGI [4]: 94.4 µM
- TGI [5]: > 100 µM
- TGI [6]: > 100 µM
- TGI [7]: > 100 µM
- TGI [8]: > 100 µM
- TGI [9]: > 100 µM
- TGI [10]: > 100 µM
- TGI [11]: 91.6 µM
- TGI [12]: > 100 µM
- TGI [13]: > 100 µM
- TGI [14]: > 100 µM
- TGI [15]: > 100 µM
- TGI [16]: > 100 µM
- TGI [17]: > 100 µM
- TGI [18]: > 100 µM
- TGI [19]: > 100 µM
- TGI [20]: > 100 µM
- TGI [54]: > 100 µM
- TGI [21]: > 100 µM
- TGI [22]: > 100 µM
- TGI [23]: 61.6 µM
- TGI [24]: > 100 µM
- TGI [25]: > 100 µM
- TGI [26]: 41 µM
- TGI [27]: 79.8 µM
- TGI [28]: > 100 µM
- TGI [29]: 34.4 µM
- TGI [30]: > 100 µM
- TGI [31]: > 100 µM
- TGI [32]: > 100 µM
- TGI [33]: > 100 µM
- TGI [34]: > 100 µM
- TGI [35]: 34.2 µM
- TGI [36]: 98.8 µM
- TGI [37]: 55.4 µM
- TGI [55]: > 100 µM
- TGI [38]: > 100 µM
- TGI [56]: > 100 µM
- TGI [39]: 39.3 µM
- TGI [57]: > 100 µM
- TGI [40]: > 100 µM
- TGI [41]: > 100 µM
- TGI [42]: > 100 µM
- TGI [43]: > 100 µM
- TGI [44]: > 100 µM
- TGI [45]: > 100 µM
- TGI [46]: > 100 µM
- TGI [47]: 43.5 µM
- TGI [59]: > 100 µM
- TGI [48]: 54.5 µM
- TGI [49]: > 100 µM
- TGI [50]: > 100 µM

Reference: PubChem BioAssay (NCI)
